Tests used:
BRD4 (BD1) = molecular target: T1, BRD4 (BD1) (Homo sapiens, UniProt O60885); assay: BRD4 (BD1) binding assay (HTRF); settings: BRD4 (D1) with GST tag and biotin-labeled acetylated peptide
T1 construct: purchased Reaction Biology Company RD-11-157
Method: The BRD4 (BD1) biochemical binding assay was carried out by Sundia MediTech Co., Ltd. • Materials and suppliers: • BRD4(D1): Reaction Biology Company; catalog #: RD-11-157; batch #1319 • Positive control compound: AZD5153; Selleck, catalog #, S8344, batch #, 1 • Peptide: GL China; catalog #329934; batch #, P171229-JQ329934 • DMSO: Sigma; catalog #, D8418-1L; batch #, SHBG3288V • OptiPlate-384: PerkinElmer; catalog #6007270, batch #, 8240-17211 • Instruments: • Centrifuge (manufacturer: Eppendorf, model: 5430) • Microplate reader (manufacturer: Perkin Elmer, model: EnVision) • Sonic pipetting system (manufacturer: Labcyte, model: Echo® 550) • In the assay, the HTRF method uses an anti-GST antibody with a cryptate chelate-labeled europium element as the donor, and the d2 or XL665-labeled streptavidin (having high affinity with biotin) as the acceptor to study the interaction between BRD4 (D1) with GST tag and biotin-labeled acetylated peptide. When the donor and acceptor are close to each other due to the binding of BRD4 (D1) to the biotin-labeled peptide, the excitation of the donor triggers fluorescence resonance energy transfer (FRET) to the acceptor, which then emits fluorescence at a specific wavelength (665 nm). • General assay procedure: 20 nL of compound solution was transferred to the 384-well plate by Labcyte Echo® 550 liquid handler, and 5 μL of BRD4 (BD1) solution from Reaction Biology Company, RD-11-157, or the assay buffer was added to each well. After centrifuge for 1 minute and incubating 15 minutes at rt, the 5 μL peptide (GL China, Catalog #329934, Batch, P171229-JQ329934) was added to each well. After centrifuge for 1 minute at 1000 rpm, 10 μL detect solution was added to each well. After incubating for 60 minutes, centrifuging 1 minute, the signals were measured by Microplate reader. Data analysis: The inhibition percentage in the presence of the compound was calculated based on the following formula:
% Inhibition=(Signal_max−Signal sample/Signal_max−Signal_min)×100
Fitting the data in GrphaPad Prism V5.0 software with log(inhibitor) vs. response-Variable slope, the IC50 was obtained.

MV-4-11 = assay: Cell proliferation assay (Cell Titer-Glo); assay type: cell-based; settings: MV-4-11 cells, compound treatment 72 h, CellTiter-Glo
Method: In order to evaluate the activity of the compound on cells, the Cell Titer-Glo assay was used for detection. The cells were incubated in a 37° C. incubator and treated with compounds for 72 hours. At the end of the reaction, the number of living cells in the culture is measured by quantitative determination of ATP. ATP is an indicator of the metabolism of living cells. With Cell Titer-Glo, the luminescence signal produced by cell lysis is proportional to the amount of ATP present, and the amount of ATP is directly proportional to the number of cells in the culture. These signal ratios reflect the cell activity of the compound at that concentration in the well under this condition. • (1) Seeding cells • Trypsinize cells and count cell density with the automated cell counter. • Dilute cell suspension to required density according to seeding density. • Seed 100 ul cells into 96-well plate in growth medium according to the plate map. Medium only is used as background control (Min). • Incubate at 37° C., 5% CO2 overnight. • (2) Compound treatment • Make 200× compound solution in DMSO. • Dilute compounds with growth medium to 3× final concentration by addition of 3 ul 200× compounds to 197 ul growth medium. • Add 50 ul diluted compounds to cells and incubate at 37° C., 5% CO2 for 72 h. • (3) Measurement • Equilibrate the assay plate to room temperature prior to measurement. • Add 40 ul of CellTiter-Glo® Reagent into each well. • Mix contents for 2 minutes on an orbital shaker to induce cell lysis. • Incubate at room temperature for 60 minutes to stabilize luminescent signal. • Record luminescence on Envision. • (4) Data analysis • (1) Using GraphPad Prism 5. • (2) % Inh=(Max signal−Compound signal)/(Max signal−Min signal)×100. • (3) Max signal was obtained from the action of DMSO. • (4) Min signal was obtained from the action of medium only.

SMILES: Cc1nnn(C)c1-c1cnc2c3nn(C)c(C(C)(C)O)c3n(C(c3ncccc3F)C3CCOCC3)c2c1 (single isomer, unassigned) [Example 12, 2-(6-(1,4-Dimethyl-1H-1,2,3-triazol-5-yl)-4-((3-fluoropyridin-2-yl)(tetrahydro-2H-pyran-4-yl)methyl)-2-methyl-2,4-dihydropyrazolo[3′,4′:4,5]pyrrolo[3,2-b]pyridin-3-yl)propan-2-ol]
- IC50 (BRD4 (BD1)): 0.19 nM
- IC50 (MV-4-11): 0.52 nM

SMILES: [2H]C([2H])([2H])n1nc2c3ncc(-c4c(C)nnn4C)cc3n(C(c3ncccc3F)C3CCOCC3)c2c1C(C)(C)O (single isomer, unassigned) [Example 15, 2-(6-(1,4-Dimethyl-1H-1,2,3-triazol-5-yl)-4-((3-fluoropyridin-2-yl)(tetrahydro-2H-pyran-4-yl)methyl)-2-(methyl-d3)-2,4-dihydropyrazolo[3′,4′:4,5]pyrrolo[3,2-b]pyridin-3-yl)propan-2-ol]
- IC50 (BRD4 (BD1)): 4.8 nM
- IC50 (MV-4-11): 72.2 nM

SMILES: [2H]C([2H])([2H])n1nc2c3ncc(-c4c(C)nnn4C)cc3n(C(c3ncccc3F)C3CCOCC3)c2c1C(C)(C)O (single isomer, unassigned) [Example 16, 2-(6-(1,4-Dimethyl-1H-1,2,3-triazol-5-yl)-4-((3-fluoropyridin-2-yl)(tetrahydro-2H-pyran-4-yl)methyl)-2-(methyl-d3)-2,4-dihydropyrazolo[3′,4′:4,5]pyrrolo[3,2-b]pyridin-3-yl)propan-2-ol]
- IC50 (BRD4 (BD1)): 0.18 nM
- IC50 (MV-4-11): 0.49 nM

SMILES: [2H]C([2H])([2H])c1nnn(C)c1-c1cnc2c3nn(C)c(C(C)(C)O)c3n(C(c3ncccc3F)C3CCOCC3)c2c1 (single isomer, unassigned) [Example 19, 2-(4-((3-Fluoropyridin-2-yl)(tetrahydro-2H-pyran-4-yl)methyl)-2-methyl-6-(1-methyl-4-(methyl-d3)-1H-1,2,3-triazol-5-yl)-2,4-dihydropyrazolo[3′,4′:4,5]pyrrolo[3,2-b]pyridin-3-yl)propan-2-ol]
- IC50 (BRD4 (BD1)): 5 nM
- IC50 (MV-4-11): 85.3 nM

SMILES: [2H]C([2H])([2H])c1nnn(C)c1-c1cnc2c3nn(C)c(C(C)(C)O)c3n(C(c3ncccc3F)C3CCOCC3)c2c1 (single isomer, unassigned) [Example 20, 2-(4-((3-Fluoropyridin-2-yl)(tetrahydro-2H-pyran-4-yl)methyl)-2-methyl-6-(1-methyl-4-(methyl-d3)-1H-1,2,3-triazol-5-yl)-2,4-dihydropyrazolo[3′,4′:4,5]pyrrolo[3,2-b]pyridin-3-yl)propan-2-ol]
- IC50 (BRD4 (BD1)): 0.17 nM
- IC50 (MV-4-11): 0.81 nM

SMILES: [2H]C([2H])([2H])c1nnn(C)c1-c1cnc2c3nn(C([2H])([2H])[2H])c(C(C)(C)O)c3n(C(c3ncccc3F)C3CCOCC3)c2c1 (single isomer, unassigned) [Example 23, 2-(4-((3-Fluoropyridin-2-yl)(tetrahydro-2H-pyran-4-yl)methyl)-2-(methyl-d3)-6-(1-methyl-4-(methyl-d3)-1H-1,2,3-triazol-5-yl)-2,4-dihydropyrazolo[3′,4′:4,5]pyrrolo[3,2-b]pyridin-3-yl)propan-2-ol]
- IC50 (BRD4 (BD1)): 4.4 nM
- IC50 (MV-4-11): 66.8 nM

SMILES: [2H]C([2H])([2H])c1nnn(C)c1-c1cnc2c3nn(C([2H])([2H])[2H])c(C(C)(C)O)c3n(C(c3ncccc3F)C3CCOCC3)c2c1 (single isomer, unassigned) [Example 24, 2-(4-((3-Fluoropyridin-2-yl)(tetrahydro-2H-pyran-4-yl)methyl)-2-(methyl-d3)-6-(1-methyl-4-(methyl-d3)-1H-1,2,3-triazol-5-yl)-2,4-dihydropyrazolo[3′,4′:4,5]pyrrolo[3,2-b]pyridin-3-yl)propan-2-ol]
- IC50 (BRD4 (BD1)): 0.17 nM
- IC50 (MV-4-11): 0.47 nM

SMILES: Cc1nnn(C)c1-c1cnc2c3nn(C)c(C(C)(C)O)c3n([C@@H](c3ccccn3)C3CCOCC3)c2c1 [Example 7]
- IC50 (BRD4 (BD1)): 8.4 nM
- IC50 (MV-4-11; Homo sapiens, MV4-11, 72 h): 139 nM

SMILES: Cc1nnn(C)c1-c1cnc2c3nn(C)c(C(C)(C)O)c3n([C@H](c3ccccn3)C3CCOCC3)c2c1 [Example 8]
- IC50 (BRD4 (BD1)): 0.18 nM
- IC50 (MV-4-11; Homo sapiens, MV4-11, 72 h): 0.75 nM
